Measurements from PMC12136031 (Science Advances, 2025).
Where two headings read alike, the source gives them in different places.

Legend:
[1] = molecular target: DCAF7 / phosphorylated TFEB peptide (Ser138, Ser142) (Homo sapiens, UniProt P61962); experiment: TFEB peptide binding assay with recombinant DCAF7; details: DCAF7 preincubated with compound
[2] = test system: TFEB ubiquitination; experiment: TFEB cellular ubiquitination assay; type: cell-based, human; details: TFEB-EGFP immunoprecipitated
[3] = molecular target: T1, AVPR1A (Homo sapiens, UniProt P37288); experiment: Safety47 Calcium Flux AVPR1A; type: cell-based; details: for Emax: read-out: Max Response; for EC50: read-out: RC50 (EC50); for IC50: read-out: RC50 (IC50)
T1 construct: purchased Eurofins Panlab Safety47 Safety Scan

[4] = molecular target: T2, HTR2B (Homo sapiens, UniProt P41595); experiment: Safety47 Calcium Flux HTR2B; type: cell-based; details: for Emax: read-out: Max Response; for EC50: read-out: RC50 (EC50); for IC50: read-out: RC50 (IC50)
T2 construct: purchased Eurofins Panlab Safety47 Safety Scan

[5] = molecular target: T3, NAV1.5 (Homo sapiens, UniProt Q14524); experiment: Safety47 Ion Channel NAV1.5; type: cell-based; details: Blocker; for Emax: read-out: Max Response; for IC50: read-out: RC50 (IC50)
T3 construct: purchased Eurofins Panlab (Safety47 Safety Scan, contract panel)

[6] = molecular target: T4, NMDAR (1A/2B) (Homo sapiens, UniProt Q05586+Q13224); experiment: Safety47 Ion Channel NMDAR (1A/2B); type: cell-based; details: for Emax: read-out: Max Response; for IC50: read-out: RC50 (IC50); for EC50: read-out: RC50 (EC50)
T4 construct: purchased Eurofins Panlab (Safety47 Safety Scan, contract panel)

[7] = molecular target: T5, INSR (Homo sapiens, UniProt P06213); experiment: Safety47 Kinase Binding INSR; details: Kinases, Inhibitor; for Emax: read-out: Max Response; for IC50: read-out: RC50 (IC50)
T5 construct: purchased Eurofins Panlab (Safety47 Safety Scan, contract panel)

[8] = molecular target: T6, VEGFR2 (Homo sapiens, UniProt P35968); experiment: Safety47 Kinase Binding VEGFR2; details: Kinases, Inhibitor; for Emax: read-out: Max Response; for IC50: read-out: RC50 (IC50)
T6 construct: purchased Eurofins Panlab (Safety47 Safety Scan, contract panel)

[9] = molecular target: T7, AR (Homo sapiens, UniProt P10275); experiment: Safety47 NHR Nuclear Translocation AR; type: cell-based; details: for Emax: read-out: Max Response; for EC50: read-out: RC50 (EC50); for IC50: read-out: RC50 (IC50)
T7 construct: purchased Eurofins Panlab (Safety47 Safety Scan, contract panel)
T7 sequence (P10275 1-920): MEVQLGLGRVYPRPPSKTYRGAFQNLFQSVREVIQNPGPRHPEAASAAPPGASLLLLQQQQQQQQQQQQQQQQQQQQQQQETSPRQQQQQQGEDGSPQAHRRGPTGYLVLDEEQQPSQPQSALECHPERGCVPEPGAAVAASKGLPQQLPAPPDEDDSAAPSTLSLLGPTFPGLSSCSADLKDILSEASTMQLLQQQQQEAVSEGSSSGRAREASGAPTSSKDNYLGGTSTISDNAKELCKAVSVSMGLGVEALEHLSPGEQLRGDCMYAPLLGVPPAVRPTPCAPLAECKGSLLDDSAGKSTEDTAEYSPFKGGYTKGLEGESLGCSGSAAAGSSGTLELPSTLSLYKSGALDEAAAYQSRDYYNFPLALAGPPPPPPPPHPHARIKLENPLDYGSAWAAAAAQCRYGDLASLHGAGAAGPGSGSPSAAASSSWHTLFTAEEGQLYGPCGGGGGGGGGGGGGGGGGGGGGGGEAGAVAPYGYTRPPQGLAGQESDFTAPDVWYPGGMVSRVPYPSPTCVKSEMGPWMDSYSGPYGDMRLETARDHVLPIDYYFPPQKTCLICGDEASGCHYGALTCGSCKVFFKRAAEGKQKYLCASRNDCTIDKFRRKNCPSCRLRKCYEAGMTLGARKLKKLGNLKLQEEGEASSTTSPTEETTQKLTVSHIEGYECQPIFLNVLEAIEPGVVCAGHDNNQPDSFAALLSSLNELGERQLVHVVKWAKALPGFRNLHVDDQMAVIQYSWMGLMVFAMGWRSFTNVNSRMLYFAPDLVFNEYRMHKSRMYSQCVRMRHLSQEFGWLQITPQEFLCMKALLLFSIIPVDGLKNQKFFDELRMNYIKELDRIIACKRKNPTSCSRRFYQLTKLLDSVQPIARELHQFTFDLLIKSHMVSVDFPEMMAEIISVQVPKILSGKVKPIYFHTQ

[10] = molecular target: T8, COX2 (Homo sapiens, UniProt P35354); experiment: Safety47 Enzymatic COX2; type: biochemical; details: Inhibitor; for Emax: read-out: Max Response; for IC50: read-out: RC50 (IC50)
T8 construct: purchased Eurofins Panlab (Safety47 Safety Scan, contract panel)
T8 sequence (P35354 18-604): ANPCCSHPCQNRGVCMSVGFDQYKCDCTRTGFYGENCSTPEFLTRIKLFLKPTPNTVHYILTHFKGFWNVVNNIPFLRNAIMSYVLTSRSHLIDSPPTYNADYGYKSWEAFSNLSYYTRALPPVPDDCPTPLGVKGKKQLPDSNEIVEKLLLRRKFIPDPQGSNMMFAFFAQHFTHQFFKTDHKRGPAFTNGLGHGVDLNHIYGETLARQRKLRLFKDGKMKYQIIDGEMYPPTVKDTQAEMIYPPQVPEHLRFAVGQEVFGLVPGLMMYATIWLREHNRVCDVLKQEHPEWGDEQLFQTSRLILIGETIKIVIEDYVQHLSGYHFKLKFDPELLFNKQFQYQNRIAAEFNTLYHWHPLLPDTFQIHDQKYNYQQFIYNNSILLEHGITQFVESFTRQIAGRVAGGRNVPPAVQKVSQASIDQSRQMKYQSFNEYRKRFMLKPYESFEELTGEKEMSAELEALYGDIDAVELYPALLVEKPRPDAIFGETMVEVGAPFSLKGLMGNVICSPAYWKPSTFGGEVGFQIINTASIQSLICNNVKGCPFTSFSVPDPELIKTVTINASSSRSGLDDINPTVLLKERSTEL

[11] = molecular target: T9, NET (Homo sapiens, UniProt P23975); experiment: Safety47 Transporter NET; type: cell-based; details: Blocker; for Emax: read-out: Max Response; for IC50: read-out: RC50 (IC50)
T9 construct: purchased Eurofins Panlab Safety47 Safety Scan

[12] = molecular target: T10, SERT (Homo sapiens, UniProt P31645); experiment: Safety47 Transporter SERT; type: cell-based; details: Blocker; for Emax: read-out: Max Response; for IC50: read-out: RC50 (IC50)
T10 construct: purchased Eurofins Panlab Safety47 Safety Scan
T10 sequence (P31645 whole entry): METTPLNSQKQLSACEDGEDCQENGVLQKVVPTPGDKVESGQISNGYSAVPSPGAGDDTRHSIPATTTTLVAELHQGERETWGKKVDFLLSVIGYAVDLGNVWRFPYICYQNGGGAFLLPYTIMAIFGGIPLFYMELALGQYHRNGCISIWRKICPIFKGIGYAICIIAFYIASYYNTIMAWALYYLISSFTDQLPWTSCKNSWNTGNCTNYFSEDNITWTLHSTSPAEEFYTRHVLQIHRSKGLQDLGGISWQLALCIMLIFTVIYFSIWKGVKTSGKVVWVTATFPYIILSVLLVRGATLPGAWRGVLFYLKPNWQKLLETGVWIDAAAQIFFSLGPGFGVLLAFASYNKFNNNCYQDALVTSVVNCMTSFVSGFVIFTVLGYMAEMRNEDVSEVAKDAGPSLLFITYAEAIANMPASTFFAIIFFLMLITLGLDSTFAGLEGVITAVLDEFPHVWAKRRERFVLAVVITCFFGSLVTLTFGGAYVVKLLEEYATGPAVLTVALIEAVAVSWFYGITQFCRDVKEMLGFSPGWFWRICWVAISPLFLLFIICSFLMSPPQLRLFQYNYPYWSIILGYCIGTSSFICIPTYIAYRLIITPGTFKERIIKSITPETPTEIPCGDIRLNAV

T6 sequence (P35968 20-1356, species assumed): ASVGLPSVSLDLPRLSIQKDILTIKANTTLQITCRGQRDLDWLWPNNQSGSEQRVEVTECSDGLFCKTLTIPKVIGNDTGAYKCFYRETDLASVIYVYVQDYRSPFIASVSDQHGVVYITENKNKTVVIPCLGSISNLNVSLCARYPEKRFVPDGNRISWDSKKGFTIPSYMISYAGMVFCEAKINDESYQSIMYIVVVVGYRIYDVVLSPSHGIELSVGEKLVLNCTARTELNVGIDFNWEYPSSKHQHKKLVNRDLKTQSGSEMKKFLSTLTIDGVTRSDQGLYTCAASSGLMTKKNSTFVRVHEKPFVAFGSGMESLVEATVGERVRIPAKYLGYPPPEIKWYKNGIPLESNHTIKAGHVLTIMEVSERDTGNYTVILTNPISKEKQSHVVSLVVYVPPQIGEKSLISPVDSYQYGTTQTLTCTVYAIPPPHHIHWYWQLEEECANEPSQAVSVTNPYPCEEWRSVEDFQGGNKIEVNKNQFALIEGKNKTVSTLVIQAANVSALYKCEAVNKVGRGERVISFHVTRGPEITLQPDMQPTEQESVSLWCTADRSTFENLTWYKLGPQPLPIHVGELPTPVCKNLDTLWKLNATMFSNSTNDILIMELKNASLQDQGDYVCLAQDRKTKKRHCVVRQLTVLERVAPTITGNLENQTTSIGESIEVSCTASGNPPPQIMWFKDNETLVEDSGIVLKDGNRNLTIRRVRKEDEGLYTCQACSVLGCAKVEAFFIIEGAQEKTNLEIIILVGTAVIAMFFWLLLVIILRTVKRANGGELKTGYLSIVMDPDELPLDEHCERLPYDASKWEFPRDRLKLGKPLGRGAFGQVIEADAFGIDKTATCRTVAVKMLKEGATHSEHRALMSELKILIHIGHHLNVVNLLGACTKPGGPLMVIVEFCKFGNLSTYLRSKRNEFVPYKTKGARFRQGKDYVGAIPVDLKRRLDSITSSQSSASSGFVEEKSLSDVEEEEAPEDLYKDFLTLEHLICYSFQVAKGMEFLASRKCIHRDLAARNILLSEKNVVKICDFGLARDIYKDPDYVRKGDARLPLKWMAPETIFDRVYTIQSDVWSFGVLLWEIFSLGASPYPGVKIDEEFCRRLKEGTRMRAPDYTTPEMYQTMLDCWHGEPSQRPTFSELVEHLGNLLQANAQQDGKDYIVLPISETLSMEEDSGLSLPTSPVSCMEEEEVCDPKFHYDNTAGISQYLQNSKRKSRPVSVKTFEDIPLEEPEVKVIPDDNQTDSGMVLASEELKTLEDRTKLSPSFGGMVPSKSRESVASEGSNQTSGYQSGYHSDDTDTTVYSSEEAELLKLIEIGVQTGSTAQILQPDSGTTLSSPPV
T4 sequence (Q13224 27-1484, other chains not shown): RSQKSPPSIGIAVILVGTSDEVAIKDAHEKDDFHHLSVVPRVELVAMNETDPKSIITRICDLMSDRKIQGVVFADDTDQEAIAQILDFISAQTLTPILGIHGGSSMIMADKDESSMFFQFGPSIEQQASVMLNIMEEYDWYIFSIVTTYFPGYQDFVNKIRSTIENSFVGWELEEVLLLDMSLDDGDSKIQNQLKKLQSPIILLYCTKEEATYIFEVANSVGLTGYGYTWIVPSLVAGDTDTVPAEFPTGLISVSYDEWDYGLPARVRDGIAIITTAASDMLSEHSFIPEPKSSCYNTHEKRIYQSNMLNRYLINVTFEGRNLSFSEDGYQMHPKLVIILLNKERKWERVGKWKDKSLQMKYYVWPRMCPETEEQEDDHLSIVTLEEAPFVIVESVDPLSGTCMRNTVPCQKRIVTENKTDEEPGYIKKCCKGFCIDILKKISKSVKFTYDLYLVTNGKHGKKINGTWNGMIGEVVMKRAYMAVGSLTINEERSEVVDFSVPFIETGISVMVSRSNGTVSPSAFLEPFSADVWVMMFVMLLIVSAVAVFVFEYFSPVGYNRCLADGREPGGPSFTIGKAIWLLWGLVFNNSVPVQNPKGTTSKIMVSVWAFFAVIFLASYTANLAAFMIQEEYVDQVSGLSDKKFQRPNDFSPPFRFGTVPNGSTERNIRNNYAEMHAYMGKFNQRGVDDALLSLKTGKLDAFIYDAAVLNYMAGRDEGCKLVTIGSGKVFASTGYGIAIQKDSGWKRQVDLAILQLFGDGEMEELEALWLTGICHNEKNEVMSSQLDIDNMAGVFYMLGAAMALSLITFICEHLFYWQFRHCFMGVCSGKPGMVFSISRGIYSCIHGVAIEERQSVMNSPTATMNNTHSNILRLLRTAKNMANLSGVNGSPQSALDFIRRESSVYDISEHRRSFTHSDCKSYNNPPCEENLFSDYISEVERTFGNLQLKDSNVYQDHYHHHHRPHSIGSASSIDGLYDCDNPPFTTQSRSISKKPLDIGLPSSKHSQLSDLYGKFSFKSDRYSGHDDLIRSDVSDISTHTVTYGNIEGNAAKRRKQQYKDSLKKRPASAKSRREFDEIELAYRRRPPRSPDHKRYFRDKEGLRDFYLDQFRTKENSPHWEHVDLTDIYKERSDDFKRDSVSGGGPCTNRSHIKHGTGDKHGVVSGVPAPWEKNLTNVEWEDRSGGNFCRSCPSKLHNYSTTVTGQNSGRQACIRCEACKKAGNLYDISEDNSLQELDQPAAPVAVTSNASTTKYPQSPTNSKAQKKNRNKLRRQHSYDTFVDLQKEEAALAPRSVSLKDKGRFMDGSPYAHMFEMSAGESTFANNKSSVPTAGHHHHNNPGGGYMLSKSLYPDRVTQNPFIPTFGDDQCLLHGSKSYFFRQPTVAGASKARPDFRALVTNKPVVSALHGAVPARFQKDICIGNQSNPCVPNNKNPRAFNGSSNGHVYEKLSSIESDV
T9 sequence (P23975 whole entry): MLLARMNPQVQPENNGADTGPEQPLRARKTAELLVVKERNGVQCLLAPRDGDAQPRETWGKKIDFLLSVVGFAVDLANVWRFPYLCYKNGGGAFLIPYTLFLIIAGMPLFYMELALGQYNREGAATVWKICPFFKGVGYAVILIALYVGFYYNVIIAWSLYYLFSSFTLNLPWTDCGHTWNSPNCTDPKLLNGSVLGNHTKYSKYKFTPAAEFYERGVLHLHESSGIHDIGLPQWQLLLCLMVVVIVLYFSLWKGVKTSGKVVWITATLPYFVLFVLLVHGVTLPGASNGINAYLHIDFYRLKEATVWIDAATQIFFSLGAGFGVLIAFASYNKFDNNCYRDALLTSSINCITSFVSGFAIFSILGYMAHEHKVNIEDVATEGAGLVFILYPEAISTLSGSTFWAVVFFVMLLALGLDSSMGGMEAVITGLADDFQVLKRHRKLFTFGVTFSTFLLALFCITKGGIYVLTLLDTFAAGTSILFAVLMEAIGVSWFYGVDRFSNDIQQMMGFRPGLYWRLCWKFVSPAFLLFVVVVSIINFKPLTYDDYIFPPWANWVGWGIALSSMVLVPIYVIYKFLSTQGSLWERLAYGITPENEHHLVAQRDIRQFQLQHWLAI
T1 sequence (P37288 whole entry): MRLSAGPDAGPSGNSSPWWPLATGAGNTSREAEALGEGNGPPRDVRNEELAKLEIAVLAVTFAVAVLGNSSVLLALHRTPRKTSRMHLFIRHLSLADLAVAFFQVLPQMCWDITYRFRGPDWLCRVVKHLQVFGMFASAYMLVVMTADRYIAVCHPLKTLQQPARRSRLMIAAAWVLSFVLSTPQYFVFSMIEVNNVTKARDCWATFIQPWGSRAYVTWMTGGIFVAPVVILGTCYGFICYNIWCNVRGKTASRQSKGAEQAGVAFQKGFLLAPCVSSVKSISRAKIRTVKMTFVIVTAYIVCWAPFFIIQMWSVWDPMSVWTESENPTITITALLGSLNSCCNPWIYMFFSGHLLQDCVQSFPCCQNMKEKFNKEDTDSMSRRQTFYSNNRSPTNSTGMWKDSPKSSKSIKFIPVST
T2 sequence (P41595 whole entry): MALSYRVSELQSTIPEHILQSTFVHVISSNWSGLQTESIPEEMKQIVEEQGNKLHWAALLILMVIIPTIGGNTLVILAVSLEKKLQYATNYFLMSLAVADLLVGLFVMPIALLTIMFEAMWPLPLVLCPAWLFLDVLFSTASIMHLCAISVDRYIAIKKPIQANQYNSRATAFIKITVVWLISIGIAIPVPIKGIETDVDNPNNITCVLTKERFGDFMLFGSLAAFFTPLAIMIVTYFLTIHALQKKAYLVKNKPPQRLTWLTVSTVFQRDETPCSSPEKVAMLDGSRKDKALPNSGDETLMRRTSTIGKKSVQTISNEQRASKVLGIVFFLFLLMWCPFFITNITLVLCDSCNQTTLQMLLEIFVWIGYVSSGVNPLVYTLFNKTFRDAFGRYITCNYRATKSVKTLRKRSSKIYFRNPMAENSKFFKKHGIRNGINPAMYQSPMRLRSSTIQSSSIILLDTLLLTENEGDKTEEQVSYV

Compound	In vitro peptide binding [1]	TFEB ubiquitination [2]	Emax ([3]; Agonist) [%]	EC50 ([3]; Agonist) [µM]	Emax ([3]; Antagonist) [%]	IC50 ([3]; Antagonist) [µM]	Emax ([4]; Agonist) [%]	EC50 ([4]; Agonist) [µM]	Emax ([4]; Antagonist) [%]	IC50 ([4]; Antagonist) [µM]	Emax [5] [%]	IC50 [5] [µM]	Emax ([6]; Blocker) [%]	IC50 ([6]; Blocker) [µM]	Emax ([6]; Opener) [%]	EC50 ([6]; Opener) [µM]	Emax [7] [%]	IC50 [7] [µM]	Emax [8] [%]	IC50 [8] [µM]	other results
Cl.c1ccc2c(Nc3ccc4[nH]ccc4c3)nc(-c3ccncc3)nc2c1 [BC18630, N-1H-indol-5-yl-2-pyridin-4-ylquinazolin-4-amine hydrochloride]	reduced	decreased	8.97	> 10	15.9	> 10	5.41	> 10	9.48	> 10	30	> 10	0	> 10	0	> 10	15.6	> 10	13.7	> 10	Emax ([9]; Agonist): 0%; EC50 ([9]; Agonist): > 10 µM; Emax ([9]; Antagonist): 15.6%; IC50 ([9]; Antagonist): > 10 µM; Emax [10]: 8.53%; IC50 [10]: > 10 µM; Emax [11]: 0%; IC50 [11]: > 10 µM; Emax [12]: 0%; IC50 [12]: > 10 µM
Cl.Fc1cc(Nc2nc(-c3ccncc3)nc3ncccc23)cc2cc[nH]c12 [BC18813, N-(7-fluoro-1H-indol-5-yl)-2-pyridin-4-ylpyrido[2,3-d]pyrimidin-4-amine hydrochloride]	reduced	decreased	1.07	> 10	16	> 10	2.91	> 10	31.3	> 10	8.29	> 10	13.8	> 10	0	> 10	0	> 10	0.27	> 10	Emax ([9]; Agonist): 0%; EC50 ([9]; Agonist): > 10 µM; IC50 ([9]; Antagonist): > 10 µM; Emax [10]: 17.9%; IC50 [10]: > 10 µM; Emax [11]: 9.94%; IC50 [11]: > 10 µM; Emax [12]: 0%; IC50 [12]: > 10 µM
